From article PMC9708767, “Synthesis of Polymer Precursor 12-Oxododecenoic Acid Utilizing Recombinant Papaya Hydroperoxide Lyase in an Enzyme Cascade” (Applied Biochemistry and Biotechnology, 2022)

Legend:
HPLCP-N = HPLCP-N (Carica papaya, UniProt Z9RAA0G2V7); experiment: photometric, decrease at […] nm, nonlinear regression; assay type: biochemical; settings: 50 mM potassium phosphate pH 6, 1 M NaCl, 22 °C; 5-100 µM substrate; affinity-enriched enzyme
[1] = target: N-terminally truncated hydroperoxide lyase from Carica papaya (HPL_(CP-N)) (Carica papaya); experiment: SEC; Superdex 200 Increase 10/300; 50 mM potassium phosphate buffer pH 7 with 0.5 M NaCl and 0.1% Triton X-100; calibrated with gel filtration markers of 29,000 to 700,000 Da; calculated mass compared with the predicted monomer mass

HPLCP-N, sequence (Z9RAA0G2V7 36-496 limits assumed): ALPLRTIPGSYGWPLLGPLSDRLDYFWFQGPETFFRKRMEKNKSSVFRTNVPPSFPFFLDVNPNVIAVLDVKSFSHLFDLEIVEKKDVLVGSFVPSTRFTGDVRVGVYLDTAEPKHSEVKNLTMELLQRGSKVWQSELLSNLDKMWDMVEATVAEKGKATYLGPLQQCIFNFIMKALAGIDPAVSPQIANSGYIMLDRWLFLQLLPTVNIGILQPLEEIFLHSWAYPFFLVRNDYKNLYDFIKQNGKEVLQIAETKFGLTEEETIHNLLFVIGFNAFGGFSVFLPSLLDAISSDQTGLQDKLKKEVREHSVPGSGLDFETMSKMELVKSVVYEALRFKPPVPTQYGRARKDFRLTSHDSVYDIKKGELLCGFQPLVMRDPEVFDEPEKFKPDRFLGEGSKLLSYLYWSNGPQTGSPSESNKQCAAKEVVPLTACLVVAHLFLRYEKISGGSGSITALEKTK

| Km (HPLCP-N) [µM] | stoichiometry N [1] | Molecule |
| --- | --- | --- |
| 140 ± 30 |  | CCCCC[C@@H](/C=C/C=C\CCCCCCCC(=O)O)OO [13S-HPODE] |
| 150 ± 40 |  | CC/C=C\C[C@@H](/C=C/C=C\CCCCCCCC(=O)O)OO [13S-HPOTE] |
|  | 4 | N-terminally truncated hydroperoxide lyase from Carica papaya (HPL_(CP-N)) (enzyme) |
